Patent US12240858B2 (ANBOGEN THERAPEUTICS, INC, priority 2021, dated 2025)
In brackets after ≈: the same amount, converted by molar mass. Counter-ions that a name gives are not always drawn. Like-named read-outs stand apart in the source and are kept apart here.

Tests used:
[1] = Weight loss before melting (TGA) of solid forms; type: physicochemical
[2] = Stability of solid forms under stress conditions; type: physicochemical
[3] = Pharmacokinetics study, rat IV and PO; type: in vivo
[4] = Solubility 24 hrs in FaSSIF, FeSSIF, SGF, H2O; type: physicochemical; details: thermodynamic from solid
Text: In Table 3, “FaSSIF” stands for “Fasted state simulated intestinal fluid”; “FeSSIF” stands for “Fed state simulated intestinal fluid”; “SGF” stands for “Simulated gastric fluid”.

[5] = 20 mg/kg, listed as ABT-101 S0*
[6] = FeSSIF (fed state simulated intestinal fluid), fessif
[7] = SGF (simulated gastric fluid), simulated gastric fluid, SGF

Structure (SMILES)	Weight loss before melting (%) (TGA) [1]	Stability ([2]; 25° C./60% RH, 1 week)	Stability ([2]; 40° C./75% RH, 1 week)	Stability ([2]; 80° C., 24 hrs)	increased Cmax, AUC and F (%) compared to amorphous form (ABT-101 S0) [3]	Cmax ([3]; 20 mg/kg)	F (%) ([3]; 20 mg/kg)	Cmax [3, 5]	F (%) [3, 5]	Tmax [3, 5]	half-life ([3]; rat, in vivo, po, 20 mg/kg)	Tmax ([3]; rat, in vivo, po, 20 mg/kg, read-out: Tmax)	solubility at 24 h [4, 6]	solubility at 24 h [4, 7]	solubility at 24 h ([4]; FaSSIF (fasted state simulated intestinal fluid), fassif)	solubility at 24 h ([4]; water, H2O)
CN(C)C/C=C/C(=O)Nc1cccc(-c2c(-c3ccccc3)oc3ncnc(NC(CO)c4ccccc4)c23)c1 (stereo not drawn) [Hydrochloride]	3.6 wt %	Stable	Stable	Stable	–	–	–	–	–	–	–	–	–	–	–	–
CN(C)C/C=C/C(=O)Nc1cccc(-c2c(-c3ccccc3)oc3ncnc(N[C@H](CO)c4ccccc4)c23)c1 [ABT-101 S0, (S, E)-4-(dimethylamino)-N-(3-(4-(2-hydroxy-1-phenylethylamino)-6-phenylfuro[2,3-d]pyrimidin-5-yl)phenyl)but-2-enamide]	–	–	–	–	1.9˜3 times	136 ng/mL	19%	508 ng/mL	42%	3.3 h	4.7 h	4 h	–	–	–	–
CN(C)C/C=C/C(=O)Nc1cccc(-c2c(-c3ccccc3)oc3ncnc(NC(CO)c4ccccc4)c23)c1 (stereo not drawn) [Glycollate]	0.7 wt %	Stable	Unstable	Stable	–	–	–	–	–	–	–	–	> 11300 µg/mL	> 10900 µg/mL	–	–
CN(C)C/C=C/C(=O)Nc1cccc(-c2c(-c3ccccc3)oc3ncnc(NC(CO)c4ccccc4)c23)c1 (stereo not drawn) [Succinate]	0.5 wt %	Stable	Unstable	Stable	–	–	–	–	–	–	–	–	–	–	–	–
CN(C)C/C=C/C(=O)Nc1cccc(-c2c(-c3ccccc3)oc3ncnc(N[C@H](CO)c4ccccc4)c23)c1 [Free Base, (S, E)-4-(dimethylamino)-N-(3-(4-(2-hydroxy-1-phenylethylamino)-6-phenylfuro[2,3-d]pyrimidin-5-yl)phenyl)but-2-enamide]	0.6 wt %	Stable	Stable	Stable	–	–	–	–	–	–	–	–	410 µg/mL (≈ 768 µM)	9100 µg/mL (≈ 17100 µM)	320 µg/mL (≈ 600 µM)	20 µg/mL (≈ 37.5 µM)
